Reference: US10494378B2, “Fused ring pyrimidine compound, intermediate, and preparation method, composition and use thereof” (GUANGZHOU MAXINOVEL PHARMACEUTICALS CO., LTD., priority 2015, dated 2019)

What was measured:
Format in all cases: biochemical
JAK2 kinase = biological target: T1, JAK2 kinase (Homo sapiens, UniProt O60674); experiment: IC50 evaluation assay on JAK2 kinase inhibition (Caliper); conditions: adenosine triphosphate at Km; 1 hour at 28° C.; average of two tests; read-out: IC50 (nM) inhibiting JAK 2 kinase
T1 construct: purchased Carna 08-045
Description: (§1) 1. The compound was dissolved in 100% DMSO, diluted into solutions with appropriate concentration gradients with water according to experimental requirement, and added to a 384-well plate.
(§2) 2. JAK2 kinase (Carna, Cat. No. 08-045, Lot. No. 07CBS-1927) and JAK3 kinase (Carna, Cat. No. 08-046, Lot. No. 08CBS-0371) were diluted to the optimum concentration with the following buffer solution: 50 mM HEPES, pH 7.5, 0.0015% Brij-35, 2 mM DTT. JAK1 kinase (Carna, Cat. No. 08-144, Lot. No. 11CBS-0144D) was diluted to the optimum concentration with the following buffer solution: 25 mM HEPES pH 7.5, 0.01% Brij-35, 2 mM DTT, 0.01M Triton. Transfer to the 384-well plate and incubated with the compound for a period of time.
(§3) 3. […] The substrate of JAK1 was diluted to the optimum concentration with the following buffer: 25 mM HEPES, pH 7.5, 0.01% Brij-35, 10 mM MgCl2, 0.01M Triton, adenosine triphosphate at Km. Add to the 384-well plate to initiate there action and react for 1 hour at 28° C.
(§4) 4. 1 Eq. of sulfuric acid solution was added to terminate the reaction, the conversion rate was read with Caliper Reader. The inhibition rate was calculated as the average of two tests.

JAK3 kinase = biological target: T2, JAK3 kinase (Homo sapiens, UniProt P52333); experiment: IC50 evaluation assay on JAK3 kinase inhibition (Caliper); conditions: adenosine triphosphate at Km; 1 hour at 28° C.; average of two tests; read-out: IC50 (nM) inhibiting JAK 3 kinase
T2 construct: purchased Carna 08-046
T2 sequence (P52333 1-1124): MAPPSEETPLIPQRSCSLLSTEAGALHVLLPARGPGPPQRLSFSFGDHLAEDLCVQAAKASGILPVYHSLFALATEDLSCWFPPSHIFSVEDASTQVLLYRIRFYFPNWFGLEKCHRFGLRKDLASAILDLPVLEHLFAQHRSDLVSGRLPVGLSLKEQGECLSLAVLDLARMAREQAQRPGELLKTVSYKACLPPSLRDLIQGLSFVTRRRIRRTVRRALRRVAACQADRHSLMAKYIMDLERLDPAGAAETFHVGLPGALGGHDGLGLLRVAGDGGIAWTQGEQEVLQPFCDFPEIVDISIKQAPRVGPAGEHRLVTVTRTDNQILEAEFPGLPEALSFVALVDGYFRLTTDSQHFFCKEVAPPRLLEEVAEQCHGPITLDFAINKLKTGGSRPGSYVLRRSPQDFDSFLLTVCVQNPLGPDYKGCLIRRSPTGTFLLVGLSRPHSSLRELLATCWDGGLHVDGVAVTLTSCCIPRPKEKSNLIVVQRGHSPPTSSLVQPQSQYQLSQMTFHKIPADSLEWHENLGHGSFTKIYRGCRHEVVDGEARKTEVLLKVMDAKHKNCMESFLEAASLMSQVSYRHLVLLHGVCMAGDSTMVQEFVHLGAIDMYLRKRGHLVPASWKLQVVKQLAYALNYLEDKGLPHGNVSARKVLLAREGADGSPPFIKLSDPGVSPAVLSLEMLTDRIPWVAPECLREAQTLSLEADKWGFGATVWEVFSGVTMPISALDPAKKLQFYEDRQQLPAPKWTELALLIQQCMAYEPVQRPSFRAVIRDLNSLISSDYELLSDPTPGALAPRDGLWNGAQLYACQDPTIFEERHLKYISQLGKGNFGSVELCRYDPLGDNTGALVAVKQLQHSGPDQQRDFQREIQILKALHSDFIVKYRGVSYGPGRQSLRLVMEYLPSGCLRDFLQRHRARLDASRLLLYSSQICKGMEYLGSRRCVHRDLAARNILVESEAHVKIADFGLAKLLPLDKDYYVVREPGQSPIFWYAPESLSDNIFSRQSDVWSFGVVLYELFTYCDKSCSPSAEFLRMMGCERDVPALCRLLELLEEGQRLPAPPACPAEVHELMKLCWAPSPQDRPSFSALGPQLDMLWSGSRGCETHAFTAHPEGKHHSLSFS
Description: as §1, §2, §3, §4

JAK1 kinase = biological target: T3, JAK1 kinase (Homo sapiens, UniProt P23458); experiment: IC50 evaluation assay on JAK1 kinase inhibition (Caliper); conditions: adenosine triphosphate at Km; 1 hour at 28° C.; average of two tests; read-out: IC50 (nM) inhibiting JAK 1 kinase
T3 construct: purchased Carna 08-144
Description: as §1, §2, §3, §4

T1 sequence (O60674 whole entry): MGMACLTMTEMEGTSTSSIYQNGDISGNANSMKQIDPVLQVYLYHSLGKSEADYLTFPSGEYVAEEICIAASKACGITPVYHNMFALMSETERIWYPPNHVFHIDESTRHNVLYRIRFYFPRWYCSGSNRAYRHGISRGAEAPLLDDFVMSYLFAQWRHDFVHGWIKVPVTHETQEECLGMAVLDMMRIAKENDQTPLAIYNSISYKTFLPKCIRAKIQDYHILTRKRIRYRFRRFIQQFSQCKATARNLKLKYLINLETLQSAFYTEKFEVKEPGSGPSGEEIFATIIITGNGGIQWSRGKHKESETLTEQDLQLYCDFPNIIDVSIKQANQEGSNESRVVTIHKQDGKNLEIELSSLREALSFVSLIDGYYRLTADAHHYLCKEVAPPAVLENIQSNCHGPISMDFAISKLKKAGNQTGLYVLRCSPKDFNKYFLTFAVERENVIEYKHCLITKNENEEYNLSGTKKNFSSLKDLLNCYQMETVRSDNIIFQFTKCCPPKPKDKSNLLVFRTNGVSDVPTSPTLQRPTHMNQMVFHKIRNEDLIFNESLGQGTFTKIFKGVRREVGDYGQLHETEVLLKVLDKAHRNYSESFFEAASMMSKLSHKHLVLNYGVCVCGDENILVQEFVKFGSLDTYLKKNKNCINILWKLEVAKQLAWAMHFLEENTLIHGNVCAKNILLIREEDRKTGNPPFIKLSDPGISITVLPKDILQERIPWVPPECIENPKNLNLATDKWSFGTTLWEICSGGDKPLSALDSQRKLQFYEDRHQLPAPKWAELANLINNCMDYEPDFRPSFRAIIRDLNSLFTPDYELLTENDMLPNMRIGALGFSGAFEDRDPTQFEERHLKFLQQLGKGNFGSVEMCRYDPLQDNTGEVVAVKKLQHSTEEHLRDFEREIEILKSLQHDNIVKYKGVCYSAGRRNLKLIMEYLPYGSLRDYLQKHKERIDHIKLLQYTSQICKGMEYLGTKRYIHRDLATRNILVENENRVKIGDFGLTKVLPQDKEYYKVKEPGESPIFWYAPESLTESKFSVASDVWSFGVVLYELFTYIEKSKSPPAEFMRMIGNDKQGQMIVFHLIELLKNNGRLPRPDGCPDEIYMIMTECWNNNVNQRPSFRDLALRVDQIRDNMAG
T3 sequence (P23458 whole entry): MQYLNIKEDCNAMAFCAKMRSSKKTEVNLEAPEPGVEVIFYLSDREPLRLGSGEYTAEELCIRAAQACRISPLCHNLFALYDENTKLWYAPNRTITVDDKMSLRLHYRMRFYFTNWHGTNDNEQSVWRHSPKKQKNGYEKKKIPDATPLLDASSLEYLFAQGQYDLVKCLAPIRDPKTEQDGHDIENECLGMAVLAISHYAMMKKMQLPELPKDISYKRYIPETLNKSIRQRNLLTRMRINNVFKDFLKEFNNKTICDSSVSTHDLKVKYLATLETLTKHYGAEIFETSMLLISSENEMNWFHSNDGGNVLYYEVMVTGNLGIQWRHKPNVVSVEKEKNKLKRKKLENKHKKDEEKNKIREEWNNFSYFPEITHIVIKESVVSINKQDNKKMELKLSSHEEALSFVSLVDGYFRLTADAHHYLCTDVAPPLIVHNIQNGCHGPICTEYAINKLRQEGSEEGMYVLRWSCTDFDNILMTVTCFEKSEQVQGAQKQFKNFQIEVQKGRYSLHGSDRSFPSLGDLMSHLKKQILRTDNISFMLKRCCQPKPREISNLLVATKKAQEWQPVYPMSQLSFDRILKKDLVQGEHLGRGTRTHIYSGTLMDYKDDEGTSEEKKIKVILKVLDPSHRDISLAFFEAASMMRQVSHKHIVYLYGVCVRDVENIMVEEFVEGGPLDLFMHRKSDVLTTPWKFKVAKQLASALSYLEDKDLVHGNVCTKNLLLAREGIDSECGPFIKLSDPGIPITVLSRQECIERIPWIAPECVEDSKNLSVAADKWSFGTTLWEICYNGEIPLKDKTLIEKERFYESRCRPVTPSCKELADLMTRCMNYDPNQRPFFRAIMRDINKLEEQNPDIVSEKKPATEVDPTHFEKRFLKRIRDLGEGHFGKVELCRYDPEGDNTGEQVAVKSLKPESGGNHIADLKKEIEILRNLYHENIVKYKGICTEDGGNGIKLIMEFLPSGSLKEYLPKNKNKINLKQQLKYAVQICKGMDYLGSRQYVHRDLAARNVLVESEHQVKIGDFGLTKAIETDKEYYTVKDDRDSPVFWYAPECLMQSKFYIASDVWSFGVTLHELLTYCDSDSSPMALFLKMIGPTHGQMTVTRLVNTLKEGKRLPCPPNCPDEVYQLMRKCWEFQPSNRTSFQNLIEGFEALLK

| IC50 (JAK2 kinase) | IC50 (JAK3 kinase) | IC50 (JAK1 kinase) | Compound |
| --- | --- | --- | --- |
| 5.8 nM | 1 nM | 2.4 nM | COc1ccccc1-c1cccc2cnc(Nc3cnn(C4CCNCC4)c3)nc12 [Compound 45, 8-(2-Methoxyphenyl)-N-[1-(4-piperidinyl)-1H-pyrazol-4-yl]quinazolin-2-amine] |
| 1.6 nM | 0.71 nM | 18 nM | Cc1sc2cnc(Nc3cnn(C4CCOCC4)c3)nc2c1-c1cccc2c1OCC2 [Compound 39, N-[7-(2,3-dihydro-1-benzofuran-7-yl)-6-methylthieno[3,2-d]pyrimidin-2-yl]-1-(tetrahydropyran-4-yl)-1H-pyrazol-4-amine] |
| 8.9 nM | 12.9 nM | 18.5 nM | Cc1sc2cnc(Nc3cnn(C)c3)nc2c1-c1ccccc1Cl [Compound 33, N-[7-(2-chlorophenyl)-6-methylthieno[3,2-d]pyrimidinyl-2-yl]-1-methyl-1H-pyrazol-4-amine] |
| 1.4 nM | 1.4 nM | 12 nM | COc1cc(Cl)ccc1-c1c(C)sc2cnc(Nc3cnn(C)c3)nc12 [Compound 6, N-[7-(4-chloro-2-dimethoxyphenyl)-6-methylthieno[3,2-d]pyrimidinyl-2-yl]-1-methyl-1H-pyrazol-4-amine] |
| 0.37 nM | 0.64 nM | 1.1 nM | COc1cc(OCC(=O)N2CCC2)ccc1-c1c(C)sc2cnc(Nc3cnn(C)c3)nc12 [Compound 23] |
| 1.8 nM | 0.99 nM | 14 nM | Cc1sc2cnc(Nc3cnn(C)c3)nc2c1-c1cccc2c1OCC2 [Compound 2, N-[7-(2,3-dihydro-1-benzofuran-7-yl)-6-methylthieno[3,2-d]pyrimidinyl-2-yl]-1-methyl-1H-pyrazol-4-amine] |
| 0.51 nM | 1.3 nM | 4.2 nM | COc1cc(S(C)(=O)=O)ccc1-c1c(C)sc2cnc(Nc3cnn(C4CCNCC4)c3)nc12 [Compound 48, N-[7-(4-methylsulfonyl-2-methoxyphenyl)-6-methylthieno[3,2-d]pyrimidin-2-yl]-1-(4-piperidin)-1H-pyrazol-4-amine] |
| 0.79 nM | 0.42 nM | 6.6 nM | Cc1sc2cnc(Nc3cnn(C4CCNCC4)c3)nc2c1-c1cccc2c1OCC2 [Compound 32, N-[7-(2,3-dihyro-1-benzofuran-7-yl)-6-methylthieno[3,2-d]pyrimidinyl-2-yl]-1-(piperidinyl-4-yl)-1H-pyrazol-4-amine] |
| 1.6 nM | 1.6 nM | 12 nM | COc1ccccc1-c1c(C)sc2cnc(Nc3cnn(CCCN4CCCC4)c3)nc12 [Compound 26, N-[7-(2-methoxyphenyl)-6-methylthieno[3,2-d]pyrimidinyl-2-yl]-1-[3-(1-pyrrolidinyl)propyl]-1H-pyrazol-4-amine] |
| 1.7 nM | 1.7 nM | 6.8 nM | COc1ccccc1-c1c(C)sc2cnc(Nc3cnn(C)c3)nc12 [Compound 1, N-[7-(2-methoxyphenyl)-6-methylthieno[3,2-d]pyrimidinyl-2-yl]-1-methyl-1H-pyrazol-4-amine] |
| 1.8 nM | 1.4 nM | 12 nM | COc1cc(O[C@@H]2CCOC2)ccc1-c1c(C)sc2cnc(Nc3cnn(C)c3)nc12 [Compound 12, N-(7-{2-methoxy-4-[(3R)-3-tetrahydrofuranoxyl]phenyl]-6-methylthieno[3,2-d]pyrimidinyl-2-yl]-1-methyl-1H-pyrazol-4-amine] |
| 13 nM | 29 nM | 47 nM | COc1ccncc1-c1c(C)sc2cnc(Nc3cnn(C)c3)nc12 [Compound 42] |
